Data on 62 molecules can be found in the METLIN SMRT retention time set (Domingo-Almenara et al. 2019).

This data set is described as follows: gradient 5% acetonitrile 3 min, to 50% in 2 min, to 85% in 15 min, held 3 min, 100 µL/min. The following applies: column: Zorbax Extend-C18 2.1 x 50 mm; eluents: water / acetonitrile, 0.1% formic acid. The gist of the method: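 Over 3 months, pure standards in mixtures of ~100 molecules were run by HPLC coupled to a quadrupole time-of-flight mass spectrometer in positive and negative ionization mode. The column was a Zorbax Extend-C18 (2.1 × 50 mm, 1.8 μm) at 100 μL/min, eluted with water and acetonitrile each holding 0.1% formic acid, with 40 μL dead and 900 μL dwell volumes. Retention time was determined from adduct peaks chosen by software and checked manually.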
`Cc1cccc(N2CCN(S(=O)(=O)c3cc(-c4nnc(C5CC5)o4)co3)CC2)c1C` came in with an RP-LC retention time of 1130 s. The same measure for `Cc1ccc(C)c2sc(N(C)CC(=O)Nc3ccc(S(C)(=O)=O)cc3)nc12`: 892 s; for `COc1ccc(CCC(=O)N(C)CCc2noc(COc3ccc(OC)cc3)n2)cc1`: 911 s. Regarding `COc1ccc(-n2nc(C(=O)N3CCC(C(N)=O)CC3)c(=O)cc2OC)cc1OC`, the RP-LC retention time was 588 s. The molecule `O=C(NCc1nn(Cc2ccccc2)c2ccccc12)c1ccco1` registered an RP-LC retention time of 853 s.

`CCN1c2ccc(F)cc2C(=O)NC12CCN(C(=O)c1ccccc1)CC2` had an RP-LC retention time of 763 s. Consider `O=C(c1ccncc1)N1CCCC(OCc2nc(C3CC3)no2)C1` (configuration not stated), for which the RP-LC retention time came to 620 s. Consider `O=C(Cn1c(=O)oc2ccccc21)N1CC2CC(C1)c1cccc(=O)n1C2` (configuration not stated), for which the RP-LC retention time is 588 s. In turn, `Cc1ccc(C)c(NC(=O)Nc2ccc3nnc(C)n3c2)c1` returned an RP-LC retention time of 695 s. As for `CC(C)n1cnc2cc(CNC(=O)c3ccoc3)ccc21`, the RP-LC retention time was 574 s. Turning to `Cc1cc(CNC(=O)NC(C)(C)C)on1`, the RP-LC retention time was determined as 636 s. Take `COc1ccc(OC)c(S(=O)(=O)N2CCCC(C(=O)N3CCOCC3)C2)c1` (configuration not stated): the RP-LC retention time was found to be 664 s.

`O=C(CSc1nnc2ccccn12)NCc1ccco1` yielded an RP-LC retention time of 576 s. As for `O=c1ccc(S(=O)(=O)N2CCCC2)cn1Cc1ccccc1Cl`, the RP-LC retention time is 854 s. The molecule `Cc1nc2c(ccc3nc(NC(=O)c4cccc(F)c4)sc32)s1` registered an RP-LC retention time of 893 s. The molecule `O=C(Cn1ccc2sccc2c1=O)NCc1ccccc1F` returned an RP-LC retention time of 785 s. The same measure for `CC1CCN(S(=O)(=O)c2ccc(-c3nnc(C(=O)NCc4ccccc4)o3)cc2)CC1`: 1040 s; for `O=C(Cc1ccc(Cl)s1)Nc1nnc(-c2cc3ccccc3o2)o1`: 843 s; for `O=C(Cc1c[nH]c2ccccc12)NCCc1c[nH]c2ccc(Cl)cc12`: 857 s. Molecule `Cc1cccc(NC(=O)C(C)n2cnc3nc4c(cc3c2=O)CCCC4)c1C` (configuration not stated) showed an RP-LC retention time of 765 s. For the molecule `CCCn1cc(CCNC(=O)Nc2ccc(C)c(F)c2)c2cccnc21`, the RP-LC retention time came to 807 s. For `CC1Cc2cc(-c3cc(CC(=O)N4CCN(c5ccccc5F)CC4)no3)ccc2O1` (configuration not stated), the RP-LC retention time is 975 s. `Cc1ccc(C(=O)CSc2ccc(NC(=O)C(C)C)nn2)c(C)c1`: the RP-LC retention time was found to be 890 s. The same measure for `CCOC(=O)C1=C(CN2CCCCC2)NC(=O)NC1c1ccco1` (configuration not stated): 579 s.

On to `CN(Cc1ccoc1)C(=O)NC1CCCC1`, for which the RP-LC retention time stood at 763 s.

`COCCOC(=O)c1cn(-c2cccc(OC)c2)c(=O)c2ccccc12`: the RP-LC retention time is 902 s. In turn, `COc1ccc(NC(=O)Cn2cccc(-c3nc(-c4ccc(OC)c(OC)c4)no3)c2=O)c(OC)c1` registered an RP-LC retention time of 788 s.

Consider `COc1ccc(Cl)cc1NC(=O)NC(C)C(=O)N1CCc2ccccc21` (configuration not stated), for which the RP-LC retention time was 1000 s. On to `CCCn1nc(CNC(=O)c2cccs2)c2ccccc21`, for which the RP-LC retention time turned out to be 785 s.

The molecule `CC(=O)N1CCc2[nH]c3ccc(C(=O)NCc4ccc(N5CCCC5)cc4)cc3c2C1` came in with an RP-LC retention time of 1120 s.

`CSc1ccccc1NC(=O)CCCn1cccc1` showed an RP-LC retention time of 1000 s.

`CCOC(=O)c1noc2ncnc(NCC3CCN(Cc4cccc(Cl)c4)CC3)c12` came in with an RP-LC retention time of 603 s. The molecule `Cc1noc(/C=C\c2ccc(S(=O)(=O)NCC3CCCO3)cc2)c1NC(=O)C1CC1` (configuration not stated) registered an RP-LC retention time of 737 s.

As for `CCCNC(=O)c1csc(C(=O)NCC)n1`, the RP-LC retention time was 670 s.

With `Cc1noc([C@@H]2CN(Cc3cc(F)cc(F)c3)C[C@H]2CO)n1`, the RP-LC retention time amounted to 546 s. Regarding `CSc1ccc(-c2noc(Cn3c(=O)n(-c4ccccc4)c(=O)c4sccc43)n2)cc1`, the RP-LC retention time was found to be 1020 s. The result for `CCc1cc(=O)n(CC(=O)Nc2ccccc2CC)c(N)n1` reads 610 s; that for `O=C1CCCc2cc(S(=O)(=O)N3CCCC3C(=O)N3CCN(c4ccccc4)CC3)ccc2N1` (configuration not stated), 750 s; that for `CCNc1nc(NC(C)(C)C)nc(-n2cnc(SC)n2)n1`, 873 s. In turn, `CCOC(=O)C1=C(CN2CCC(N3CCCCC3)CC2)NC(=O)NC1c1ccc(Cl)cc1` (configuration not stated) returned an RP-LC retention time of 599 s. `Cn1nc(-c2nc(C3CC3)no2)c2c1CCN(C(=O)c1ccccc1F)C2` displayed an RP-LC retention time of 805 s. As for `O=S(=O)(c1ccc2c(c1)CCC2)N1CCC(c2noc(-c3cccc(F)c3)n2)CC1`, the RP-LC retention time stood at 1260 s. As for `COCC(=O)NC1CCC12CCN(S(=O)(=O)C(C)C)CC2` (configuration not stated), the RP-LC retention time worked out at 682 s. The same measure for `CC(=O)c1cccc(NC(=O)c2cnn(-c3ccc(Br)cc3)c2)c1`: 940 s; for `O=C(CC(c1ccccc1)c1ccccc1)N(Cc1ccsc1)Cc1ccccn1`: 857 s; for `O=C1NCC/C1=C\c1ccc(C(F)(F)F)cc1`: 718 s.

On to `Cc1cccc(NC(=O)C2CCCN(c3cc(=O)n(C)c(=O)n3C)C2)c1` (configuration not stated), for which the RP-LC retention time is 735 s. As to `CCCn1c(=O)sc2cc(S(=O)(=O)N3CCC(C(=O)NC(C)CC)CC3)ccc21` (configuration not stated), the RP-LC retention time came to 853 s.

For `CN1CCN(c2ccccc2NC(=O)C2CCCN(c3ncnc4c3nc3n4CCCCC3)C2)CC1` (configuration not stated), the RP-LC retention time came out at 635 s. `O=C(NCc1ccc(-c2noc(Cc3cccc(F)c3)n2)s1)C1CC1` displayed an RP-LC retention time of 879 s.

For the molecule `CCn1nccc1-c1cccc(-c2noc(-c3ccc4cc[nH]c4c3)n2)c1`, the RP-LC retention time is 1140 s. `Cc1nn(C)c(C)c1C(=O)N1CCC2(CCC2O)CC1` (configuration not stated) returned an RP-LC retention time of 600 s. `CN1CCCCCCN(S(=O)(=O)c2cccc3nsnc23)CCC1=O` came in with an RP-LC retention time of 783 s. `CCC(C)NC(=O)c1c2c(cn(-c3ccccc3)c1=O)C(=O)CC(C)(C)C2` (configuration not stated) registered an RP-LC retention time of 942 s. In turn, `O=C(Nc1cccc2ccc(-n3ccnc3)nc12)c1ccsc1` gave an RP-LC retention time of 615 s.

Turning to `Cc1ccc(CNC(=O)C2CCCN(c3cc(=O)n(C)c(=O)n3C)C2)o1` (configuration not stated), the RP-LC retention time was found to be 583 s. The same measure for `CCNC(=O)c1n[nH]c2c1CC(C)CC2` (configuration not stated): 685 s; for `CC(C)NC(=O)N1CCCC(c2cccc(C(=O)NCc3ccccc3C(F)(F)F)c2)C1` (configuration not stated): 966 s.

Molecule `COc1ccc(N2CCN(c3cc(SCC(=O)Nc4cc(Cl)ccc4OC)ncn3)CC2)cc1` yielded an RP-LC retention time of 1200 s. The result for `CCOc1ccc(CC(=O)N2CCCn3nc(-c4cccs4)cc3C2)cc1` reads 850 s; that for `CCN1CCCn2cc(S(=O)(=O)Nc3cccc(C)c3C)cc2C1=O`, 768 s; that for `COc1ccccc1CCC(=O)N1CCN(c2cc(-c3cccs3)[nH]n2)CC1`, 838 s.
